We go through 1 molecule from patent publication US20100190805A1, “PREPARATION FOR THE TREATMENT OF EQUINE LAMINITIS” (BOEHRINGER INGELHEIM VETMEDICA GMBH, priority 2007, published 2010).

Structures are written as SMILES.

For data set [1] the following is noted: horses, cited from earlier work.
Data set [2] relates to horses suffering from acute laminitis. The data set is described as follows: Treatment of horses suffering from laminitis with allopurinol (case reports). In kind it is in vivo, horse. To be noted: oral allopurinol 1 to 50 mg/kg of body weight. The text has this:
Thus there are also positive effects on the general condition. […] Only by treating with allopurinol is it possible to carry out this treatment as horses suffering acute pain cannot be fitted with supports.

As for `Oc1ncnc2[nH]ncc12` [allopurinol], in data set [1] (oral administration), the “bioavailability after oral administration” value was 14.3%. The “sum of the areas under the concentration/time curves of allopurinol and oxypurinol after oral administration of allopurinol” value in data set [1] (oral versus intravenous allopurinol) is reported as “identical to that of allopurinol administered intravenously”. In data set [2], the “appetite / general condition” value is on record as “appetite returns”, the inflammation result was “decline after three days' treatment”, the lameness entry was “reduced” and the pain entry is “decline after three days' treatment”. The “time until horses can be fitted with an orthopaedic hoof support” value in data set [2] (time after the start of treatment) was “roughly one week after the start of treatment”.
